Reference: article PMC9506414, “Novel 2,6,9-Trisubstituted Purines as Potent CDK Inhibitors Alleviating Trastuzumab-Resistance of HER2-Positive Breast Cancers” (Pharmaceuticals, 2022)

What was measured:
Assay in all cases: Kinome-wide inhibition profiling
Type in all cases: biochemical
ACVR1 = molecular target: T1, ACVR1 (Homo sapiens, UniProt Q04771)
T1 construct: purchased Reaction Biology Corp
Method: (§1) In vitro CDK12/cyclinK assays for all compounds and in vitro kinome-wide inhibition profiling of 30d at 10 μM were performed by a CRO company (Reaction Biology Corp., San Diego, CA, USA).

AXL = molecular target: T2, AXL (Homo sapiens, UniProt P30530)
T2 construct: purchased Reaction Biology Corp
Method: as §1

BMPR1B = molecular target: T3, BMPR1B (Homo sapiens, UniProt O00238)
T3 construct: purchased Reaction Biology Corp
Method: as §1

BMPR2 = molecular target: T4, BMPR2 (Homo sapiens, UniProt Q13873)
T4 construct: purchased Reaction Biology Corp
Method: as §1

BRAF = molecular target: T5, BRAF (Homo sapiens, UniProt P15056)
T5 construct: purchased Reaction Biology Corp
Method: as §1

CAMK2g = molecular target: T6, CAMK2g (Homo sapiens, UniProt Q13555)
T6 construct: purchased Reaction Biology Corp
Method: as §1

DCAMKL1 = molecular target: T7, DCAMKL1 (Homo sapiens, UniProt O15075)
T7 construct: purchased Reaction Biology Corp
Method: as §1

DMPK = molecular target: T8, DMPK (Homo sapiens, UniProt Q09013)
T8 construct: purchased Reaction Biology Corp
Method: as §1

DMPK2 = molecular target: T9, DMPK2 (Homo sapiens, UniProt Q6DT37)
T9 construct: purchased Reaction Biology Corp
T9 sequence (Q6DT37 whole entry): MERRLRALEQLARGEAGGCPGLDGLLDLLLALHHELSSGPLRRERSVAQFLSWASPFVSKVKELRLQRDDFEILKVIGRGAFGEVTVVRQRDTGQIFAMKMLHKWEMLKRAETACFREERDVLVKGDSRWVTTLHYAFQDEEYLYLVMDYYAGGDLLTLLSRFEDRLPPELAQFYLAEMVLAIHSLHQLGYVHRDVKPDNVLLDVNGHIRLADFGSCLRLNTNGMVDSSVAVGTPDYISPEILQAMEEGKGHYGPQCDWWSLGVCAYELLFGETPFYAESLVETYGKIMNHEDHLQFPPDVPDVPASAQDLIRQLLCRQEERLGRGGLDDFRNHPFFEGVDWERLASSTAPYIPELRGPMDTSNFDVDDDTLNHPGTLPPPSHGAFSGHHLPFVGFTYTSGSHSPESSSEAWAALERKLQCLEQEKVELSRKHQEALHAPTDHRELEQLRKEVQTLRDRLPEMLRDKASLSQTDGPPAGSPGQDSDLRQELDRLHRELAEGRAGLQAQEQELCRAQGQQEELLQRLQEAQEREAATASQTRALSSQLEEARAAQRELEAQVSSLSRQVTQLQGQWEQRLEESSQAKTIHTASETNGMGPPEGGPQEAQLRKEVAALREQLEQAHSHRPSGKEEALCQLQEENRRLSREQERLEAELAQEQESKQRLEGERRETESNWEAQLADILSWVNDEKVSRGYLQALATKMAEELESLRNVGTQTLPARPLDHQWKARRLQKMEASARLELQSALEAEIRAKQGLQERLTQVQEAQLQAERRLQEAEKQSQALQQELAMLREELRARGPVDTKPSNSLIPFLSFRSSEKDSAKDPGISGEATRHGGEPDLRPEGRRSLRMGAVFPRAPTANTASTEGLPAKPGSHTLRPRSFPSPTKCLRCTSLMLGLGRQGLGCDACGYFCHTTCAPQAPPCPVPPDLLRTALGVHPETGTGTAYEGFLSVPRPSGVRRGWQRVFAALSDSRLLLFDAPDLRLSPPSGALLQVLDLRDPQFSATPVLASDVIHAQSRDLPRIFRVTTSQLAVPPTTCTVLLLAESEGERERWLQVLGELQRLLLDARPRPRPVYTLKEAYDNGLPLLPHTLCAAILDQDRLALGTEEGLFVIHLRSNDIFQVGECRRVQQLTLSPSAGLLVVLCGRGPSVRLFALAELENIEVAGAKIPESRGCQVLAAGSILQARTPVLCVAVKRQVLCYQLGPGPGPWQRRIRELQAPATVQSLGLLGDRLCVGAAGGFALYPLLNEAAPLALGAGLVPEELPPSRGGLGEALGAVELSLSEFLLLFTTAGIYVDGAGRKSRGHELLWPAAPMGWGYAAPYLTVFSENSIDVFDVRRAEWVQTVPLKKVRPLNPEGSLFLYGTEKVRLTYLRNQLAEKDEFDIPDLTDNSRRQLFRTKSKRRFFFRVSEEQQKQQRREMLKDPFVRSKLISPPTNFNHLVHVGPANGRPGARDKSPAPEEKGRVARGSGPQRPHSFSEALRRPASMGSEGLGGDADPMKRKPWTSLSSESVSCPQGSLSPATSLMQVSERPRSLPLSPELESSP
Method: as §1

ERBB2 = molecular target: T10, ERBB2 (Homo sapiens, UniProt P04626)
T10 construct: purchased Reaction Biology Corp
Method: as §1

ERK5 = molecular target: T11, ERK5 (Homo sapiens, UniProt Q13164)
T11 construct: purchased Reaction Biology Corp
Method: as §1

GRK4 = molecular target: T12, GRK4 (Homo sapiens, UniProt P32298)
T12 construct: purchased Reaction Biology Corp
Method: as §1

GRK6 = molecular target: T13, GRK6 (Homo sapiens, UniProt P43250)
T13 construct: purchased Reaction Biology Corp
Method: as §1

HPK1 = molecular target: T14, HPK1 (Homo sapiens, UniProt Q92918)
T14 construct: purchased Reaction Biology Corp
Method: as §1

INSR = molecular target: T15, INSR (Homo sapiens, UniProt P06213)
T15 construct: purchased Reaction Biology Corp
Method: as §1

JAK3 = molecular target: T16, JAK3 (Homo sapiens, UniProt P52333)
T16 construct: purchased Reaction Biology Corp
Method: as §1

JNK3 = molecular target: T17, JNK3 (Homo sapiens, UniProt P53779)
T17 construct: purchased Reaction Biology Corp
Method: as §1

KSR2 = molecular target: T18, KSR2 (Homo sapiens, UniProt Q6VAB6)
T18 construct: purchased Reaction Biology Corp
Method: as §1

LKB1 = molecular target: T19, LKB1 (Homo sapiens, UniProt Q15831)
T19 construct: purchased Reaction Biology Corp
T19 sequence (Q15831 whole entry): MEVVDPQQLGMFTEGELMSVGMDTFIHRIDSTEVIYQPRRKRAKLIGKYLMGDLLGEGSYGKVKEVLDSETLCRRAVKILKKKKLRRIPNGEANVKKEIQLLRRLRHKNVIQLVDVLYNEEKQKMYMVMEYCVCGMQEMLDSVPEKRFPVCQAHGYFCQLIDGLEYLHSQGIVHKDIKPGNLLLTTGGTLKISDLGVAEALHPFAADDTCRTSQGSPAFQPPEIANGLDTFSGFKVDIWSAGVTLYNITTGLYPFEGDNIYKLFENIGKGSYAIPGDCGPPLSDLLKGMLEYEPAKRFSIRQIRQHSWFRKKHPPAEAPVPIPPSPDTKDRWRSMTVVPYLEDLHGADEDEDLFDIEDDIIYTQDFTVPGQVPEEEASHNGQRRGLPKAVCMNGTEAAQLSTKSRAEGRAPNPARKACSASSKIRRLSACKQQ
T19 sequence (Q7RTN6 whole entry partner): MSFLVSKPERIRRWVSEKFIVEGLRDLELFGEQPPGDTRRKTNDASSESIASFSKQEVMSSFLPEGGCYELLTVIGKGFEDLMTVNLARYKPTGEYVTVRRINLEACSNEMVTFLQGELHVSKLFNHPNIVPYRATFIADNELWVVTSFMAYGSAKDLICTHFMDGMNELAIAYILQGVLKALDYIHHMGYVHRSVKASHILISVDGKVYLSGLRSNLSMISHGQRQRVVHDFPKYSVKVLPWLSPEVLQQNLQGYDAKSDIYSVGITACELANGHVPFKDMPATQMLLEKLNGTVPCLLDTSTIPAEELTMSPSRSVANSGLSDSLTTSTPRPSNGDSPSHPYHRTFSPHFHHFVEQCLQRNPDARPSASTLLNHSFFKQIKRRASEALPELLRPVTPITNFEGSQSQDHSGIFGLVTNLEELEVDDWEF
T19 sequence (Q9Y376 whole entry partner): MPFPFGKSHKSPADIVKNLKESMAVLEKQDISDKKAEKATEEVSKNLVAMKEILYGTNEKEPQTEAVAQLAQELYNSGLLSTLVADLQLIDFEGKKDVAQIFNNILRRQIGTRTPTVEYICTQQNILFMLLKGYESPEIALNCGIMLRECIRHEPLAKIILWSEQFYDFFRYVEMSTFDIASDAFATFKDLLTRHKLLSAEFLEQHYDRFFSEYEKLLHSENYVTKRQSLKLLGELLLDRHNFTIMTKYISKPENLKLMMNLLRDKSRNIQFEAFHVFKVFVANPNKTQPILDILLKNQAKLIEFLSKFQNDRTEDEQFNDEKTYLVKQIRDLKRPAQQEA
Method: as §1

LRRK2 = molecular target: T20, LRRK2 (Homo sapiens, UniProt Q5S007)
T20 construct: purchased Reaction Biology Corp
Method: as §1

MAP4K3 = molecular target: T21, MAP4K3 (Homo sapiens, UniProt Q8IVH8)
T21 construct: purchased Reaction Biology Corp
Method: as §1

MAST3 = molecular target: T22, MAST3 (Homo sapiens, UniProt O60307)
T22 construct: purchased Reaction Biology Corp
Method: as §1

MRCKb = molecular target: T23, MRCKb (Homo sapiens, UniProt Q9Y5S2)
T23 construct: purchased Reaction Biology Corp
Method: as §1

MST3 = molecular target: T24, MST3 (Homo sapiens, UniProt Q9Y6E0)
T24 construct: purchased Reaction Biology Corp
Method: as §1

MST4 = molecular target: T25, MST4 (Homo sapiens, UniProt Q9P289)
T25 construct: purchased Reaction Biology Corp
Method: as §1

MUSK = molecular target: T26, MUSK (Homo sapiens, UniProt O15146)
T26 construct: purchased Reaction Biology Corp
Method: as §1

MYO3b = molecular target: T27, MYO3b (Homo sapiens, UniProt Q8WXR4)
T27 construct: purchased Reaction Biology Corp
Method: as §1

NEK6 = molecular target: T28, NEK6 (Homo sapiens, UniProt Q9HC98)
T28 construct: purchased Reaction Biology Corp
Method: as §1

NIM1 = molecular target: T29, NIM1 (Homo sapiens, UniProt Q8IY84)
T29 construct: purchased Reaction Biology Corp
Method: as §1

PAK2 = molecular target: T30, PAK2 (Homo sapiens, UniProt Q13177)
T30 construct: purchased Reaction Biology Corp
Method: as §1

PCTK3 = molecular target: T31, PCTK3 (Homo sapiens, UniProt Q07002)
T31 construct: purchased Reaction Biology Corp
T31 sequence (Q07002 whole entry): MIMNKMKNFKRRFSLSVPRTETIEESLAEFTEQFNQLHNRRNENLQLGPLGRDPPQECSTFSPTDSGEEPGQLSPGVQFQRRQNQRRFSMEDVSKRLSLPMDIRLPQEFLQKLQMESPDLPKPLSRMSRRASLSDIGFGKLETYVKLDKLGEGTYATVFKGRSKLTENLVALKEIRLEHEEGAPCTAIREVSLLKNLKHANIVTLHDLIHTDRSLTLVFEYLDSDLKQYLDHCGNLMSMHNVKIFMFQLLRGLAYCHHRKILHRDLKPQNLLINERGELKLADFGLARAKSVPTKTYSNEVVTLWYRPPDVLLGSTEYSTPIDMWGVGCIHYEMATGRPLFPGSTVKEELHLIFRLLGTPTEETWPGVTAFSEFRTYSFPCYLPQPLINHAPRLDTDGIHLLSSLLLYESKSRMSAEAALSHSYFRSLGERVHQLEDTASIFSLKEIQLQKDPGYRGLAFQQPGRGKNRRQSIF
T31 sequence (Q8ND76 whole entry partner): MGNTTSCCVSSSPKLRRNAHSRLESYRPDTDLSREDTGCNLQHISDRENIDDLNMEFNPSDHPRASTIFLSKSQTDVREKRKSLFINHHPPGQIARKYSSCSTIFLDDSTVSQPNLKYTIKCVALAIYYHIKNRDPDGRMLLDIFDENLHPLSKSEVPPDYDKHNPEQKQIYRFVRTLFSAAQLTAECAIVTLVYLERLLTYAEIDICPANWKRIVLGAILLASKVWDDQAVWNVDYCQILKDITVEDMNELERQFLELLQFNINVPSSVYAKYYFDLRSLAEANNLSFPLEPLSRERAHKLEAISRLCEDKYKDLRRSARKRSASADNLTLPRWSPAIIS
Method: as §1

PKAC-beta = molecular target: T32, PKAC-beta (Homo sapiens, UniProt P22694)
T32 construct: purchased Reaction Biology Corp
Method: as §1

PRKD2 = molecular target: T33, PRKD2 (Homo sapiens, UniProt Q9BZL6)
T33 construct: purchased Reaction Biology Corp
Method: as §1

PRKG1 = molecular target: T34, PRKG1 (Homo sapiens, UniProt Q13976)
T34 construct: purchased Reaction Biology Corp
T34 sequence (Q13976 whole entry): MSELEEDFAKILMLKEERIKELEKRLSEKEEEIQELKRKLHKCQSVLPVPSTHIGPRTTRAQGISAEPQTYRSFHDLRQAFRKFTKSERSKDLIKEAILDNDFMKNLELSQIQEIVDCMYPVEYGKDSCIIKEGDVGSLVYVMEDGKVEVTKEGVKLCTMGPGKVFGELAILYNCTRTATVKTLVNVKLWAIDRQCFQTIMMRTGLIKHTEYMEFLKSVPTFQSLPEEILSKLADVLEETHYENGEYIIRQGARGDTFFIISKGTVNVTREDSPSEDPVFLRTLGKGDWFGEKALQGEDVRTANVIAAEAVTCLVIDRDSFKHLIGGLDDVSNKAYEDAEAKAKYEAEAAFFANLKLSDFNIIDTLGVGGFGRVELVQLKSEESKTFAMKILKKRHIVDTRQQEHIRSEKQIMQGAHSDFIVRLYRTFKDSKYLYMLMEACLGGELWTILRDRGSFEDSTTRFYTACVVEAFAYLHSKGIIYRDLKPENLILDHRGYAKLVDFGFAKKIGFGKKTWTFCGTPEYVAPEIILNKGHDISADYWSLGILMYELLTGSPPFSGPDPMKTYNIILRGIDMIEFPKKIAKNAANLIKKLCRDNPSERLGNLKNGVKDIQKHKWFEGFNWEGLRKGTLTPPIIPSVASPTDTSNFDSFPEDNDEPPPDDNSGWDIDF
Method: as §1

QSK = molecular target: T35, QSK (Homo sapiens, UniProt Q9Y2K2)
T35 construct: purchased Reaction Biology Corp
Method: as §1

RIPK5 = molecular target: T36, RIPK5 (Homo sapiens, UniProt Q6XUX3)
T36 construct: purchased Reaction Biology Corp
Method: as §1

SBK1 = molecular target: T37, SBK1 (Homo sapiens, UniProt Q52WX2)
T37 construct: purchased Reaction Biology Corp
Method: as §1

SIK = molecular target: T38, SIK (Homo sapiens, UniProt P57059)
T38 construct: purchased Reaction Biology Corp
Method: as §1

SIK2 = molecular target: T39, SIK2 (Homo sapiens, UniProt Q9H0K1)
T39 construct: purchased Reaction Biology Corp
Method: as §1

SRPK1 = molecular target: T40, SRPK1 (Homo sapiens, UniProt Q96SB4)
T40 construct: purchased Reaction Biology Corp
Method: as §1

STK39 = molecular target: T41, STK39 (Homo sapiens, UniProt Q9UEW8)
T41 construct: purchased Reaction Biology Corp
Method: as §1

TBK1 = molecular target: T42, TBK1 (Homo sapiens, UniProt Q9UHD2)
T42 construct: purchased Reaction Biology Corp
Method: as §1

WNK1 = molecular target: T43, WNK1 (Homo sapiens, UniProt Q9H4A3)
T43 construct: purchased Reaction Biology Corp
Method: as §1

YES = molecular target: T44, YES (Homo sapiens, UniProt P07947)
T44 construct: purchased Reaction Biology Corp
T44 sequence (P07947 whole entry): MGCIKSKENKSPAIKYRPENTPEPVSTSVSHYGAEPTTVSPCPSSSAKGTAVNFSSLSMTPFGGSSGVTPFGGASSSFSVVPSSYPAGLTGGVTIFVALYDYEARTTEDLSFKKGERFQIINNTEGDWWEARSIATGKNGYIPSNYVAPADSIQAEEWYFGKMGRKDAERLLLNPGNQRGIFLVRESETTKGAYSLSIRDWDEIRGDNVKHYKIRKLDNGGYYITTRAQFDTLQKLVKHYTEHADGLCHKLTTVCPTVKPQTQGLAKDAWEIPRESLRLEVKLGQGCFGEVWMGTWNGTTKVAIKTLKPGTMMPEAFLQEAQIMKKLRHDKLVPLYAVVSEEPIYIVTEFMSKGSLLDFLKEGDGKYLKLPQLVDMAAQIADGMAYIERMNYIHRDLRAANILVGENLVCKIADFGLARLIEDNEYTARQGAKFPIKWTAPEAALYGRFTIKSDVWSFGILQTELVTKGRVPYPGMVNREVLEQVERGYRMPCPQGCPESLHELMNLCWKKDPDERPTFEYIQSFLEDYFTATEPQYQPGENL
Method: as §1

CCn1cnc2c(NCc3ccc(-c4ccccn4)nc3)nc(-c3ccc(N)nc3)nc21 [Compound 30d, N-([2,2′-Bipyridin]-5-ylmethyl)-2-(6-aminopyridin-3-yl)-9-ethyl-9H-purin-6-amine]
remaining activity at 10 µM (ACVR1): 118%
remaining activity at 10 µM (AXL): 44.2%
remaining activity at 10 µM (BMPR1B): 115%
remaining activity at 10 µM (BMPR2): 52.4%
remaining activity at 10 µM (BRAF): 60.8%
remaining activity at 10 µM (CAMK2g): 105%
remaining activity at 10 µM (DCAMKL1): 72.6%
remaining activity at 10 µM (DMPK): 90.4%
remaining activity at 10 µM (DMPK2): 92.4%
remaining activity at 10 µM (ERBB2): 74.2%
remaining activity at 10 µM (ERK5): 97.7%
remaining activity at 10 µM (GRK4): 88.3%
remaining activity at 10 µM (GRK6): 80.6%
remaining activity at 10 µM (HPK1): 30.2%
remaining activity at 10 µM (INSR): 65.1%
remaining activity at 10 µM (JAK3): 99.7%
remaining activity at 10 µM (JNK3): 48.7%
remaining activity at 10 µM (KSR2): 88.4%
inhibition at 10 µM (LKB1): > 95%
remaining activity at 10 µM (LKB1): 0.1%
remaining activity at 10 µM (LRRK2): 17.7%
remaining activity at 10 µM (MAP4K3): 49.6%
remaining activity at 10 µM (MAST3): 39.3%
remaining activity at 10 µM (MRCKb): 99.3%
remaining activity at 10 µM (MST3): 47%
remaining activity at 10 µM (MST4): 45.8%
remaining activity at 10 µM (MUSK): 10.2%
remaining activity at 10 µM (MYO3b): 68.1%
remaining activity at 10 µM (NEK6): 92.1%
remaining activity at 10 µM (NIM1): 76%
remaining activity at 10 µM (PAK2): 46.7%
inhibition at 10 µM (PCTK3; CDK18): > 95%
remaining activity at 10 µM (PCTK3; PCTK3 (listed as CDK18 in Figure 6)): 2.5%
remaining activity at 10 µM (PKAC-beta): 104%
remaining activity at 10 µM (PRKD2): 72.3%
remaining activity at 10 µM (PRKG1): 108%
remaining activity at 10 µM (QSK): 30.2%
remaining activity at 10 µM (RIPK5): 67.8%
remaining activity at 10 µM (SBK1): 94.5%
remaining activity at 10 µM (SIK): 56.3%
remaining activity at 10 µM (SIK2): 35.9%
remaining activity at 10 µM (SRPK1): 54.3%
remaining activity at 10 µM (STK39): 29.6%
remaining activity at 10 µM (TBK1): 55%
remaining activity at 10 µM (WNK1): 82.5%
remaining activity at 10 µM (YES): 20.6%
